Test results taken from patent publication US8470780B2, “Methods and compositions related to targeting wounds, regenerating tissue, and tumors” (Sanford-Burnham Medical Research Institute, priority 2006, dated 2013).
Bridges are numbered along the chain shown (N, C = ends). Where no end group is shown, it is not given here.

What was measured:
[1] = system: pgsA-745 cells; experiment: Internalization of peptides by pgsA-745 cells; type: cell-based, Chinese hamster; settings: comparison of CHO-K and pgsA-745 cells
[2] = system: CHO-K cells; experiment: Internalization of fluorescein-labeled peptides by CHO-K cells; type: cell-based, Chinese hamster; settings: for fluorescence and localization in CHO-K cells by confocal microscopy: FITC-conjugated peptides 10 μM, 4 hours; for accumulation in CHO-K cells: comparison of CHO-K and pgsA-745 cells
Method: (§1) To study peptide internalization, CHO-K cells or HUVEC seeded on plastic coverslips were incubated with 10 μM fluorescein-conjugated peptides for 30 min to 72 hours, washed 3 times with PBS, and fixed with 4% paraformaldehyde for 20 min at room temperature. After several washes with PBS, the nuclei were visualized by staining with DAPI, and the slides were mounted with ProLong Gold antifade reagent (Invitrogen, Carlsbad, Calif.). The images were acquired using Olympus IX81 inverted and Olympus Fluoview FV1000 confocal microscopes. Z-stack images were taken by confocal microscope every 1 μm through the cells.

[3] = system: CHO-K cells; experiment: FACS analysis of peptide binding to CHO-K cells; type: cell-based, Chinese hamster; settings: for peptide binding to CHO-K cells: 5 μM peptide
Method: (§2) Peptide binding to cells was studied essentially as described above for phage. Peptides were tested at 5 μM concentration, with or without 5×10^9 phage. After incubation on ice for 30 min, the cells were washed and resuspended with PBS containing 2 μg/ml of propidium iodide (PI, Invitrogen, Carlsbad, Calif.) and analyzed using a FACScan flow cytometer (BD, San Jose, Calif.).

[4] = system: tendon and skin wounds; experiment: Tissue distribution of fluorescein-labeled peptides after intravenous injection; type: in vivo, mice and rats; settings: FITC conjugates; for fluorescent signal in the wounds: 4 and 8 hours after injection
Text: Two types of injuries were used with patellar tendons: For phage screening in rats, patellar tendons were exposed through small skin incisions placed on the lateral side of the joint so that the skin wound and tendon wound were not in direct contact with each other. Six longitudinal, full-length incisions were made into the tendon. Full-thickness incision wounds, 1.5 cm in length, were made in skin on the back of the animal. The skin wounds were left uncovered without a dressing. For quantification of phage homing and peptide injections, two size 11 surgical scalpels were placed side-by-side and the central third of the patellar tendon was removed analogous to the graft used in anterior cruciate ligament reconstruction. Achilles tendons were wounded by making four longitudinal, full-length incisions into the tendon Skin wounds were 8 mm circular, full-thickness excision wounds, made to the skin with a biopsy punch. None of the procedures prevented the animals from bearing weight and moving immediately after the operation and without a noticeable […].
Peptides were synthesized with an automated peptide synthesizer by using standard solid-phase fluorenylmethoxycarbonyl chemistry. During synthesis, the peptides were labeled with fluorescein with an amino-hexanoic acid spacer. Each individual fluorescein-conjugated peptide was injected intravenously into the tail vein of rats or mice with wounds. The peptides were allowed to circulate for different periods of time, followed by heart perfusion. Tissues were embedded into OCT (Tissue-Tek) and processed for microscopy.
Frozen tissue sections were fixed in acetone for 10 min and incubated with 0.5% blocking reagent for 1 hour (NEN Life Sciences, Boston, Mass.). Tissue sections were incubated with the primary antibody overnight at 4° C. The following monoclonal (mAbs) and polyclonal antibodies (pAbs) were used: rabbit anti-T7-phage affinity-purified pAb (1:100), rat anti-mouse CD31 mAb (1:200; BD Pharmingen) and rabbit anti-FITC pAb (1:200, Invitrogen, Carlsbad, Calif.). The primary antibodies were detected with labeled secondary antibodies, and each staining experiment included sections stained with species-matched immunoglobulins as negative controls. The sections were washed several times with PBS, mounted in Vectashield Mounting Medium with DAPI (Vector Laboratories) and visualized under an inverted fluorescent or light microscope.

[5] = system: mitochondrial membranes; settings: concentration of 10 μM; cited from earlier work
[6] = system: MDA-MB-235 tumor xenografts; experiment: Homing of fluorescein-conjugated peptides to tumor xenografts; type: in vivo, mice; settings: intravenous, tumor collected 4 hours later; for homing to tumors and extravasation: fluorescence
Method: Fluorescein-conjugated peptides CAR, control peptide CAR2, CRK and control peptide KAREC were intravenously injected into mice with MDA-MB-235 tumor xenografts. Tumor tissue was collected 4 hours later and examined for the presence of the peptides. Blood vessels were stained with CD-31 antibody and the nuclei were stained with DAPI.
Fluorescein-conjugated peptides CAR, control peptide CAR2, CRK and control peptide KAREC were intravenously injected into mice with MDA-MB-235 tumor xenografts. Tumor tissue was collected 4 hours later and examined for the presence of the peptides. Adjacent tissue section were stained for blood vessels (CD-31), while the FITC-labeled peptide was first detected with rabbit anti-FITC followed by biotin-conjugated anti-rabbit IgG to confirm the source of fluorescent signal to be from the FITC-labeled peptide. The sections were then stained with hematoxylin-eosin.

[7] = system: human umbilical vein endothelial cells (HUVECs); experiment: Internalization of peptides by HUVECs; type: cell-based; settings: 10 μM, 24 h
Method: as §1

[8] = system: pgsA-745 cells; experiment: FACS analysis of peptide binding to pgsA-745 cells; type: cell-based, Chinese hamster; settings: 5 μM peptide
Method: as §2

Substance	accumulation in pgsA-745 cells [1]	fluorescence and localization in CHO-K cells by confocal microscopy [2]	accumulation in CHO-K cells [2]	peptide binding to CHO-K cells [3]	binding and internalization by CHO-K cells ([2]; fluorescein-labeled peptide)	fluorescent signal in the wounds [4]	homing detected with anti-FITC antibody [6]	homing to tumors and extravasation [6]	binding and internalization by HUVECs [7]	fluorescent signal in non-tumor tissues (liver, kidney, lung and spleen) [4]	also measured
CGKRK [reference compound]	accumulated in the cytosol and nuclei	overlap with the nuclei and the cytosol	accumulated in the cytosol and nuclei								effect of unlabeled competitor on uptake of fluorescein-labeled CAR peptide by CHO-K cells ([2]; 10-molar excess of unlabeled peptide): did not detectably affect the uptake
CARSTKATC [CAR2]		no detectable fluorescence		bound only weakly	no binding or internalization	no accumulated fluorescence					
D(KLAKLAK)2 (KLAKLAKKLAKLAKKLAKKLAKAAKKAA) [antimicrobial peptide which promotes disruption of mitochondrial membranes]											mitochondrial swelling [5]: marked mitochondrial swelling
CRKDKC (not fully specified (N-terminus); cysteine pairing not given here; also: FITC conjugate, site not given here) [tested as fluorescein (FITC) conjugate]		no detectable fluorescence			bound to the cells, but was not detectably internalized	strong fluorescent signal in the wounds	home to hypervascular regions surrounding the tumors and to tumor tissue	home to tumors and extravasate to tumor tissue	binds to the cells, but does not internalize	did not differ from that of the fluorescein-labeled CAR2 or KAREC peptides	
CARSKNKDC (disulfide 1-9 (inferred); not fully specified (N-terminus); also: FITC conjugate, site not given here) [tested as fluorescein (FITC) conjugate]	only binds to and is internalized by the CHO-K cells	strong green fluorescence that mostly overlaps with nuclear DAPI staining	only binds to and is internalized by the CHO-K cells	strong binding		strong fluorescent signal in the wounds	home to hypervascular regions surrounding the tumors and to tumor tissue	home to tumors and extravasate to tumor tissue	binds to cells and appears to enter the cells co-localizing with the nuclei	did not differ from that of the fluorescein-labeled CAR2 or KAREC peptides	inhibition of labeled CAR peptide binding to CHO-K cells by competitor ([3]; excess unlabeled peptide or phage): inhibited the binding in a dose-dependent manner; time to accumulation inside the cells, overlapping with the nucleus ([2]; fluorescein-labeled peptide): ≤ 30 min
KAREC [unrelated 5 amino-acid control peptide, reference compound]		no detectable fluorescence		no binding		no detectable signal in the wounds					peptide binding to pgsA-745 cells [8]: no binding
